Experimental data from US20070073056A1, “4-Substituted Pyrazoline Compounds, their Preparation and Use as Medicaments” (LABORATORIOS DEL DR. ESTEVE, S.A., priority 2005, published 2007).
Where a name gives a salt, the structure may show the parent alone.

Tests used:
[1] = target: recombinant human cannabinoid 1 receptor (CB1) (Homo sapiens, UniProt P21554); experiment: [35S]GTPγS binding assay, antagonism to CB1-receptor (Pharmacological methods, part V); type: biochemical; details: compound at 1 μM against agonist WIN 55,212-2; 100% = effect of Rimonabant (1 μM); CHO membranes
Sequence of recombinant human cannabinoid 1 receptor (CB1) (P21554 whole entry): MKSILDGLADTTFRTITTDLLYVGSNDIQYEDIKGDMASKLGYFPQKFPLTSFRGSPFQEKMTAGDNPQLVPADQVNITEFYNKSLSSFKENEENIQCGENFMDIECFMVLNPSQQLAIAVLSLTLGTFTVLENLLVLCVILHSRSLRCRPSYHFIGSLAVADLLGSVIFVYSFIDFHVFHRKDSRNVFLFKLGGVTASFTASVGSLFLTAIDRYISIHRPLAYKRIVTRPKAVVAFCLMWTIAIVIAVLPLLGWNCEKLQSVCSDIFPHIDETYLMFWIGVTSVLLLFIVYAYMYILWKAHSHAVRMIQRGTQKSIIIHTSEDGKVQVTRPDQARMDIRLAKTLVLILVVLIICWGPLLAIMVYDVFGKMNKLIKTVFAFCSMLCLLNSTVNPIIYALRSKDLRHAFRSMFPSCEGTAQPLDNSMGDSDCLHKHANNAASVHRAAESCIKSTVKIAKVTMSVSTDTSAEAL
Protocol: V. In vitro Determination of Antagonism to CB1-Receptor
Chinese hamster ovary (CHO) cells stably expressing recombinant human cannabinoid 1 receptor (CB1) were cultured in nutrient mixture Ham's F 12 supplemented with 10% heat-inactivated fetal bovine serum, 2 mM L-glutamine, 50 U/ml penicillin, 50 U/ml streptomycin and 0.5 mg/ml geneticin. In order to obtain cells, culture flasks were washed twice with phosphate buffered saline and scraped. Then, cells were collected by centrifugation (200×g, 10 min) and stored dry at −80° C. Cells were homogenized in ice-cold 20 mM HE PES, 10 mM EDTA (pH 7.5) and centrifuged at 40,000×g for 15 min at 4° C. The pellet was resuspended in 20 mM HEPES, 0.1 mM EDTA (pH 7.5) and centrifuged for 15 min at 4° C. The final pellet was resuspended in 20 mM HEPES, 0.1 mM EDTA (pH 7.5), and divided in aliquots and stored at −80° C. until use.
[^35S]GTPγS Binding Assay:
The reaction was performed in 96-well plates. […] The incubation was terminated by rapid filtration through Millipore Multiscreen glass fiber FB, and rinsed two-times with ice-cold assay buffer. Filter plates were dried and 30 μl of scintillation liquid was added. Radioactivity was determined using Wallac Microbeta Trilux. Each experiment was performed at least in duplicate.
The average of basal [35S]GTPγS binding was subtracted from all binding data.
The antagonism of the pyrazoline compounds of general formula I to the CB1-receptor was determined according to the method described in Pharmacological methods, part V (table 2).

[2] = target: CB1-receptor (UniProt P20272); experiment: binding of the pyrazoline compounds to CB1-receptors (Pharmacological Methods, Part I); set-up: other: 10^−7 M; other: 10^−8 M; species or system human or rat
Procedure, shortened: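 Rat cerebellum membranes (male Wistar), 100 μg protein, competed against 1 nM [3H]-CP 55,940 in 50 mM Tris-HCl, 5 mM MgCl2, 1 mM EDTA, 0.5% BSA, pH 7.4; 1 h at 30 °C. Non-specific binding with 10 μM HU-210; filtration and scintillation counting, triplicates, non-linear regression.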

[3] = target: CB1-receptor (UniProt P20272); experiment: as above; set-up: IC50; species or system human or rat; details: radioligand [3H]-CP55940, read-out: IC50
Protocol: I. In-vitro Determination of Affinity to CB1/CB2-Receptors
The in-vitro determination of the affinity of the inventive 4-substituted pyrazoline compounds to CB1/CB2-Rezeptors is carried out as described in the publication of Ruth A. Ross, Heather C. Brockie et al., “Agonist-inverse agonist characterisation at CB1 and CB2 cannabinoid receptors of L-759633, L759656 and AM630”, British Journal of Pharmacology, 126, 665-672, (1999), whereby the transfected human CB1 and CB2 receptors of Receptor Biology, Inc. are used. The radioligand used for both receptors is [^3H]-CP55940. The respective parts of the description is hereby incorporated by reference and forms part of the present disclosure.
Rat Cerebellum CB1 Binding
Binding affinity to CB1 receptor was evaluated according to a modification of the method described by Govaerts et al., Eur J Pharmac Sci 23, 233-243 (2004). The respective parts of the description is hereby incorporated by reference and forms part of the present disclosure.
Briefly, cerebellum from male wistar rats (250-300 g) were carefully dissected on ice and homogenates were prepared with Potter-Helveheim in a cold 50 mM Tris-HCl solution containing 5 mM MgCl2, 1 mM EDTA and 0.25 M sucrose, pH 7.4. The suspension was centrifuged at […] for 5 minutes. The supernatants were collected and centrifuged 50,000×g for 15 minutes. The resulting pellets were then resuspended in Tris-HCl buffer without sucrose, homogenized and incubated for 15 min at 37° C. in an orbital shaker bath and centrifuged again at 50,000×g for 15 min. Pellets were weighted, resuspended in Tris-HCl buffer without sucrose, homogenized with Ultraturrax at 13,500 rpm for 3×5 seconds and alicuoted in 0.9 ml volumes in Eppendorf tubes. Alicuotes were centrifuged at 20,800×g for 5 minutes, supernatants discarded and pellets were frozen at −80° C. until use. Total protein concentration was determined using the Bio-Rad Lowry method based kit. Competitive binding experiments were performed in presence of 1 nM [^3H]-CP 55,940 in siliconized glass tubes containing 100 μg protein/tube resuspended in 1 ml final volume of 50 mM Tris-HCl, 5 mM MgCl2, 1 mM EDTA, 0.5% (w/v) bovine serum albumin, pH 7.4. Compounds were present at various concentrations and the non specific binding was determined in the presence of 10 μM HU-210. After 1 hour incubation at 30° C., the suspension was rapidly filtered through 0.5% PEI pre-treated GF/B fiber filters on a 96-well harvester and washed 3 times with 3 ml ice-cold binding buffer without bovine serum albumin. Radioactivity on filters was measured with Wallac Winspectral 1414 counter by liquid scintillation in 6 ml Ecoscint H (National Diagnostics, U.K.). Assays were made in triplicates.
Binding data were analyzed by non-linear regression with the software GraphPad Prism Version 3.03.
The binding of the pyrazoline compounds of general formula I to CB1-receptors was determined according to the method described in the section Pharmacological Methods, Part I.

C[C@H]1C(C(=O)O)=NN(c2ccc(Cl)cc2Cl)[C@H]1c1ccc(Cl)cc1 (racemic) [Example 19, cis-5-(4-Chloro-phenyl)-1-(2,4-dichloro-phenyl)-4-methyl-4,5-dihydro-1H-pyrazole-3-carboxylic acid]
Antagonism [1]: −18%
Inhibition ([2]; 10^−7 M): −3.6%
Inhibition ([2]; 10^−8 M, in %): −0.7

C[C@H]1C(C(=O)NN2CCCCC2)=NN(c2ccc(Cl)cc2Cl)[C@H]1c1ccc(Br)s1 (relative stereo) [Example 70, cis-5-(5-Bromo-thiophen-2-yl)-1-(2,4-dichloro-phenyl)-4-methyl-4,5-dihydro-1H-pyrazole-3-carboxylic acid piperidin-1-ylamide]
Antagonism [1]: 81%

C[C@@H]1C(C(=O)NN2CCCCC2)=NN(c2ccc(Cl)cc2Cl)[C@@H]1c1ccccc1 (relative stereo) [Example 375, cis-1-(2,4-dichlorophenyl)-4-methyl-5-phenyl-N-(piperidin-1-yl)-4,5-dihydro-1H-pyrazole-3-carboxamide]
Antagonism [1]: 58%
IC50 [3]: 140 nM

C[C@@H]1C(C(=O)NN2CCCCC2)=NN(c2ccc(Cl)cc2Cl)[C@H]1c1ccccc1 (relative stereo) [Example 376, trans-1-(2,4-dichlorophenyl)-4-methyl-5-phenyl-N-(piperidin-1-yl)-4,5-dihydro-1H-pyrazole-3-carboxamide]
Antagonism [1]: 75%
IC50 [3]: 70.8 nM

C[C@H]1C(C(=S)NN2CCCCC2)=NN(c2ccc(Cl)cc2Cl)[C@H]1c1ccc(Cl)cc1 (relative stereo) [Example 379, cis-5-(4-chlorophenyl)-1-(2,4-dichlorophenyl)-4-methyl-N-(piperidin-1-yl)-4,5-dihydro-1H-pyrazole-3-carbothioamide hydrochloride]
IC50 [3]: 112 nM
Inhibition ([2]; 10^−7 M): 74.5%
Inhibition ([2]; 10^−8 M, in %): 27.0

COc1ccc([C@@H]2[C@H](C)C(C(=O)NN3CCCCC3)=NN2c2ccc(Cl)cc2Cl)cc1 (relative stereo) [Example 410, cis-1-(2,4-dichlorophenyl)-5-(4-methoxyphenyl)-4-methyl-N-(piperidin-1-yl)-4,5-dihydro-1H-pyrazole-3-carboxamide]
IC50 [3]: 82 nM
Inhibition ([2]; 10^−7 M): 58.1%
Inhibition ([2]; 10^−8 M, in %): 42.4

CCOC(=O)C1=NN(c2ccc(Cl)cc2Cl)[C@@H](c2ccc(Cl)cc2)[C@@H]1C(F)(F)F (relative stereo) [Example 416, trans-ethyl 5-(4-chlorophenyl)-1-(2,4-dichlorophenyl)-4-(trifluoromethyl)-4,5-dihydro-1H-pyrazole-3-carboxylate]
IC50 [3]: 182 nM
Inhibition ([2]; 10^−7 M): 93.5%
Inhibition ([2]; 10^−8 M, in %): 41

C[C@@H]1C(C(=O)NN2CCCCC2)=NN(c2ccc(Cl)cc2Cl)[C@@H]1c1ccc(Br)cc1.Cl (relative stereo) [Example 418, cis-5-(4-bromophenyl)-1-(2,4-dichlorophenyl)-4-methyl-N-(piperidin-1-yl)-4,5-dihydro-1H-pyrazole-3-carboxamide hydrochloride]
IC50 [3]: 36 nM
Inhibition ([2]; 10^−7 M): 62.6%
Inhibition ([2]; 10^−8 M, in %): 19.9

CC1CCCC(NC(=O)C2=NN(c3ccc(Cl)cc3Cl)[C@H](c3ccc(Cl)cc3)[C@@H]2C)C1 (relative stereo) [Example 423, cis-5-(4-chlorophenyl)-1-(2,4-dichlorophenyl)-4-methyl-N-(3-methylcyclohexyl)-4,5-dihydro-1H-pyrazole-3-carboxamide]
IC50 [3]: 45.5 nM
Inhibition ([2]; 10^−7 M): 66.7%
Inhibition ([2]; 10^−8 M, in %): 33.1

CC1CCCCC1NC(=O)C1=NN(c2ccc(Cl)cc2Cl)[C@H](c2ccc(Cl)cc2)[C@@H]1C (relative stereo) [Example 424, cis-5-(4-chlorophenyl)-1-(2,4-dichlorophenyl)-4-methyl-N-(2-methylcyclohexyl)-4,5-dihydro-1H-pyrazole-3-carboxamide]
IC50 [3]: 29.7 nM
Inhibition ([2]; 10^−7 M): 65.7%
Inhibition ([2]; 10^−8 M, in %): 39.3

C[C@@H]1C(C(=O)NN2CCCCC2)=NN(c2ccc(Cl)cc2Cl)[C@@H]1c1cccs1.Cl (relative stereo) [Example 430, cis-1-(2,4-dichlorophenyl)-4-methyl-N-(piperidin-1-yl)-5-(thiophen-2-yl)-4,5-dihydro-1H-pyrazole-3-carboxamide hydrochloride]
Antagonism [1]: 23%
IC50 [3]: > 1000 nM

CC[C@@H]1C(C(=O)NN2CCCCC2)=NN(c2ccc(Cl)cc2Cl)[C@@H]1c1ccc(Cl)cc1 (relative stereo) [Example 432, cis-5-(4-chlorophenyl)-1-(2,4-dichlorophenyl)-4-ethyl-N-(piperidin-1-yl)-4,5-dihydro-1H-pyrazole-3-carboxamide]
Antagonism [1]: 89%
IC50 [3]: 89 nM

C[C@@H]1C(C(=O)N[C@H]2CCCC[C@@H]2O)=NN(c2ccc(Cl)cc2Cl)[C@@H]1c1ccc(Cl)cc1 (single isomer, unassigned) [Example 129]
IC50 [3]: 69 nM
Inhibition ([2]; 10^−7 M): 72.3%
Inhibition ([2]; 10^−8 M, in %): 11.6

C[C@@H]1C(C(=O)NN2CCCCC2)=NN(c2ccc(Cl)cc2Cl)[C@@H]1c1ccc(Cl)cc1 (single isomer, unassigned) [Example 419, (−)-cis-5-(4-chlorophenyl)-1-(2,4-dichlorophenyl)-4-methyl-N-(piperidin-1-yl)-4,5-dihydro-1H-pyrazole-3-carboxamide]
IC50 [3]: 54.3 nM
Inhibition ([2]; 10^−7 M): 57.1%
Inhibition ([2]; 10^−8 M, in %): 27.8

C[C@H]1C(C(=O)NN2CCCCCC2)=NN(c2ccc(Cl)cc2Cl)[C@H]1c1ccc(F)cc1.Cl (stereo in doubt) [Example 227, cis-N-(azepan-1-yl)-1-(2,4-dichlorophenyl)-5-(4-fluorophenyl)-4-methyl-4,5-dihydro-1H-pyrazole-3-carboxamide hydrochloride]
IC50 [3]: 122 nM
Inhibition ([2]; 10^−7 M): 65.3%
Inhibition ([2]; 10^−8 M, in %): 15.3
